The record followed here is patent publication US10174040B2, “Pyrrolopyrimidine compound or salt thereof and compositions containing the pyrrolopyrimidine compound or salt thereof” (TAIHO PHARMACEUTICAL CO., LTD., priority 2014, dated 2019).

For orientation: IC50 means the midpoint of a concentration-inhibition curve.

The test system of series [1] is human diffuse large B-cell lymphoma DB cell line. The experiment in a line: Cell growth inhibition 2 (CellTiter-Glo), DB. In kind it is cell-based. The settings on record: 384-well plate. On the technique in general: In ATP-based viability assays light output follows the ATP content of the culture.
For series [2], the system named is human lung cancer A-427 cell line. As to the kind of experiment: Cell growth inhibition 2 (CellTiter-Glo), A-427. In kind it is cell-based. The settings on record: 384-well plate.
The test system of series [3] is human osteo- and soft tissue sarcoma SJCRH30 cell line. As to the kind of experiment: Cell growth inhibition 2 (CellTiter-Glo), SJCRH30. In kind it is cell-based. The settings on record: 384-well plate.
Series [4] deals with human prostate cancer LNCAP.FGC cell line. The experiment in a line: Cell growth inhibition 2 (CellTiter-Glo), LNCAP.FGC. It counts as cell-based. The settings on record: 384-well plate.
In series [5] the test system is human breast cancer MDA-MB-453 cell line. As to the kind of experiment: Cell growth inhibition 2 (CellTiter-Glo), MDA-MB-453. It counts as cell-based. The settings on record: 384-well plate.
Series [6] in a line: Body weight change, antitumor test 2 (HCT-116 mice). It counts as in vivo, BALB/cAJcl-nu/nu mice. The settings on record: HCT-116 xenograft in nude mice, 120 mg/kg/day, administration days 1, 4, 8, 11, day 15.
The target in series [7] is carbonic anhydrase II (Homo sapiens (Human), UniProt P00918). The experiment in a line: Carbonic anhydrase II enzyme activity inhibition (4-NPA esterase activity). It counts as biochemical.
Series [8] concerns human skin cancer A-431 cell line. As to the kind of experiment: Cell growth inhibition 2 (CellTiter-Glo), A-431. In kind it is cell-based. The settings on record: 384-well plate.
Series [9] is described as follows: Body weight change, antitumor test 3 (CCRF-CEM mice). In kind it is in vivo, BALB/cAJcl-nu/nu mice (nude mice). The settings on record: for change of the body weight compared with the control: CCRF-CEM nude mice, Test Example 7. The procedure: (§1) The length and the width of the implanted tumor and the body weight were measured. The tumor volume (TV) was calculated using the following equation (equation D). TV (mm3)=(length×width^2)/2, wherein the unit of length and width is mm (equation D).
(§2) Thereafter, the length and the width of the tumor and the body weight (BWn) on day n were measured over time in the same manner, and the TVn of each mouse was calculated. Further, the relative tumor volume (RTVn) was calculated based on the TVn of each mouse using the following equation (equation E); the treatment/control (T/C) value (%) was calculated based on the mean RTVn of each drug administration group using the following equation (equation F); and the weight change rate (BWCn) was calculated using the following equation (equation G). RTVn=TVn/TV1 (equation E) T/Cn(%)=(mean RTV of each drug administration group on the last day of the test)/(mean RTV of the control group on the last day of the test)×100 (equation F) BWCn (%)=(BWn−BW1)/BW1×100 (equation G) FIGS. 1 and 2, and Table 21 below show the results.
(§3) The tumor growth inhibitory effects on human tumors were evaluated as in Test Example 5, except that the compound hydrochloride obtained in Example 122, the compound hydrochloride (Example 64), and human acute lymphoblastic leukemia (ALL) CCRF-CEM cell lines were used, and the animals were assigned to each group in accordance with a stratified randomization procedure when the TV reached 140 to 380 mm3.
At this time, the cell lines were washed in PBS, and suspended in 50% PBS and 50% Matrigel basement membrane matrix (#356237; produced by BD Biosciences) at a concentration of 1×10^8 cells/mL. 0.1 mL of this cell suspension was subcutaneously implanted to the right chest of 6-week-old BALB/cAJcl-nu/nu mice (nude mice) (produced by CLEA Japan, Inc.). […]

Series [10] deals with human acute leukemia MV-4-11 cell line. As to the kind of experiment: Cell growth inhibition 2 (CellTiter-Glo), MV-4-11. The settings on record: MV4-11, 384-well plate. It counts as cell-based.
Series [11] deals with human acute lymphoblastic leukemia (ALL) CCRF-CEM cell lines. As to the kind of experiment: Antitumor effect on tumor cells transplanted into mice 3 (CCRF-CEM, tumor volume). The settings on record: Dunnett's test; CCRF-CEM in nude mice; compound hydrochlorides, intravenous. It counts as in vivo, BALB/cAJcl-nu/nu mice (nude mice). The procedure: as §1, §2, §3
At this time, the cell lines were washed in PBS, and suspended in 50% PBS and 50% Matrigel basement membrane matrix (#356237; produced by BD Biosciences) at a concentration of 1×10^8 cells/mL. 0.1 mL of this cell suspension was subcutaneously implanted to the right chest of 6-week-old BALB/cAJcl-nu/nu mice (nude mice) (produced by CLEA Japan, Inc.). The compound hydrochloride (Example 122) was intravenously administered in an amount of 5 mL per 1 kg of body weight on days 1 and 8, and the compound hydrochloride (Example 133) was intravenously administered in an amount of 5 mL per 1 kg of body weight on days 1 and 8.

Series [12] has as its system human multiple myeloma U266B1 cell line. As to the kind of experiment: Cell growth inhibition 2 (CellTiter-Glo), U266B1. In kind it is cell-based. The settings on record: 384-well plate.
Series [13] relates to human pancreatic cancer Capan-1 cell line. As to the kind of experiment: Cell growth inhibition 2 (CellTiter-Glo), Capan-1. In kind it is cell-based. The settings on record: 384-well plate.
Series [14] can be described thus: Body weight change, antitumor test 1 (HCT-116 mice). It counts as in vivo, BALB/cAJcl-nu/nu mice. As for the experimental part: (§4) Human colon cancer HCT-116 cell lines were washed in PBS and suspended at a concentration of 4×10^7 cells/mL. 0.1 mL of this cell suspension was subcutaneously implanted in the right chest of 6-week-old BALB/cAJcl-nu/nu mice (produced by CLEA Japan, Inc.).
as §1
(§5) When the TV reached 100 to 300 mm3, the animals were assigned to each group in accordance with a stratified randomization procedure. The day was considered day 1, the TV on the day was considered TV1, and the body weight on the day was considered BW1.
(§6) A required amount of the test compound was weighed to prepare an administration solution.
Thereafter, the length and the width of the tumor and the body weight (BWn) on day n were measured over time in the same manner, and the TVn of each mouse was calculated. Further, the relative tumor volume (RTVn) was calculated based on the TVn of each mouse using the following equation (equation E); the treatment/control (T/C) value (%) was calculated based on the mean RTVn of each drug administration group using the following equation (equation F); and the weight change rate (BWCn) was calculated using the following equation (equation G). […]

Series [15] has as its system human colon cancer HCT116 cell line. The experiment in a line: Cell growth inhibition 2 (CellTiter-Glo), HCT116. The settings on record: HCT-116, 384-well plate. It counts as cell-based.
In series [16] the test system is Human colon cancer HCT-116 cell lines. As to the kind of experiment: Antitumor effect on tumor cells transplanted into mice 1 (HCT-116, tumor volume). It counts as in vivo, BALB/cAJcl-nu/nu mice. The settings on record: HCT-116 in nude mice; for RTV15 comparison with control: Dunnett's test. As for the experimental part: as §4, §1, §5, §6, §2
Series [17] has the same test system. The experiment in a line: Antitumor effect on tumor cells transplanted into mice 2 (HCT-116, tumor volume). In kind it is in vivo, BALB/cAJcl-nu/nu mice. The settings on record: Dunnett's test; HCT-116 in nude mice; hydrochloride compound of Example 55.
The subject of series [18] is human acute T lymphoblastic leukemia CCRF-CEM cell lines. The experiment in a line: Cell growth inhibition 1 (CellTiter-Glo), CCRF-CEM. It counts as cell-based. The settings on record: 72 hours culture with compound.
The target in series [19] is NAE (heterodimer of APPBP1 and UBA3) (Homo sapiens (Human), UniProt Q8TBC4). As to the kind of experiment: Nedd8 conjugation inhibitory activity (AlphaScreen assay). The settings on record: purified NAE, GST-UBC12, Biotin-Nedd8, ATP. It counts as biochemical. A general note: Bead proximity is the source of the signal in Alpha formats.
Sequence of NAE (heterodimer of APPBP1 and UBA3) (Q8TBC4 whole entry): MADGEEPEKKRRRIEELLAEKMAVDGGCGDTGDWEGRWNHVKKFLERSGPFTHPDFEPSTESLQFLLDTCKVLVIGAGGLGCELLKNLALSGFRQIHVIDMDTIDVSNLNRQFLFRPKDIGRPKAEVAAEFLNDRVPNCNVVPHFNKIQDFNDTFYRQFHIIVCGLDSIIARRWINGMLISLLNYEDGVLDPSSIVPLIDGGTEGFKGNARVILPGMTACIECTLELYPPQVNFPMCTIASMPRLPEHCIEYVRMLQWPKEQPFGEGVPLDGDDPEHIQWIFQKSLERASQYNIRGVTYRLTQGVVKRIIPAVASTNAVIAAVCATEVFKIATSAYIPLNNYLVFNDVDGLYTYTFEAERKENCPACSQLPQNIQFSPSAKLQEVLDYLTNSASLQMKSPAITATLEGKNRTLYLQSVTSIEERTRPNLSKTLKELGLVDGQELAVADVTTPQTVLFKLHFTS
Sequence of NAE (heterodimer of APPBP1 and UBA3) (Q13564 whole entry partner): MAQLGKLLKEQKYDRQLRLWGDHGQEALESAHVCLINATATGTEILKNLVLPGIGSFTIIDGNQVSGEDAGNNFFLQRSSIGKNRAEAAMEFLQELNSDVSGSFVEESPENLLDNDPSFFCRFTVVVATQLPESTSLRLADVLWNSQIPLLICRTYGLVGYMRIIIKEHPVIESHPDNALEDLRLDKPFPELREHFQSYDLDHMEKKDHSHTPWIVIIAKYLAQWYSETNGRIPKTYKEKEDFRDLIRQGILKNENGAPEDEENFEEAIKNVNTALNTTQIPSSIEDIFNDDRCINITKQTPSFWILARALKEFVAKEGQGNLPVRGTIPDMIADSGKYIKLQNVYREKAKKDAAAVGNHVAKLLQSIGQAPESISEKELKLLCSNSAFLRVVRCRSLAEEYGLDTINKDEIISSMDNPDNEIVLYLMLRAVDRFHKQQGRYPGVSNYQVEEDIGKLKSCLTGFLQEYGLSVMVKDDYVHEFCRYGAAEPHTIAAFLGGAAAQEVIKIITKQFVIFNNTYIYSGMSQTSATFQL

On to `NS(=O)(=O)OC[C@@H]1C[C@@H](n2ccc3c(N[C@H]4CCc5ccccc54)ncnc32)C[C@@H]1O` [Comparative Example, N-[(1S)-1-indanyl]-7-[(1R)-3α-hydroxy-4α-(sulfamoyloxymethyl)cyclopentyl]-7H-pyrrolo[2,3-d]pyrimidin-4-amine], for which the IC50 in series [1] was 560 nM; in series [2], 180 nM; in series [3], over 10 µM; in [4] it was 410 nM; in [5], 1900 nM; in series [7] (4-nitrophenyl acetate esterase activity, absorbance at 405 nm), 0.012 µM. Besides, the IC50 in series [8] stood at 750 nM; in series [10], 110 nM; in series [12] it was 1400 nM; in [13], 1500 nM; in series [15], 89 nM; in [18], 89 nM. The “BWC15 (%) Mean ± SD” value is −8.4 ± 3.2% in [6]; 6.1 ± 2.6% in [9] (CCRF-CEM xenograft in nude mice, 120 mg/kg/day i.v., administration days 1, 4, 8, 11, day 15); −14.3 ± 5.1% in series [14] (body weight change rate day 15, dose 120 mg/kg/day intravenous, administration day 1, 4, 8, 11). Further, the “inhibitory activity against carbonic anhydrase II” value in series [7] (summary in words of Table 18) is “exhibited inhibitory activity against carbonic anhydrase II”. Besides, the “RTV comparison with control on day 15” value in [11] was “significantly lower than that of the control”. In addition, the “RTV15 comparison with control” value in series [16] and in [17] was “significantly lower than that of the control” in each case.
In the case of `Nc1ncnc2c1c(C#Cc1c(F)cccc1F)cn2[C@@H]1O[C@H](CNS(N)(=O)=O)[C@@H](O)[C@H]1O` [Example 1, 4-Amino-5-[2-(2,6-difluorophenyl)ethynyl]-7-[(2R,3R,4S,5R)-3,4-dihydroxy-5-[(sulfamoylamino)methyl]tetrahydrofuran-2-yl]pyrrolo[2,3-d]pyrimidine], the “change of the body weight compared with the control” value (“change of the body weight” for short) in series [14] (HCT-116 nude mice, Test Example 5) is recorded as “within an acceptable degree”. Also, the “RTV comparison with Comparative Example” value in [16] (Aspin-Welch's t-test) was “significantly lower than that of the Comparative Example”. The “RTV15 comparison with control” value in series [16] is “significantly lower than that of the control”.
For the molecule `CN1CCOc2c1ccc(F)c2C#Cc1cn([C@@H]2O[C@H](CNS(N)(=O)=O)[C@@H](O)[C@H]2O)c2ncnc(N)c12` [Example 64, 8-[2-[4-Amino-7-[(2R,3R,4S,5R)-3,4-dihydroxy-5-[(sulfamoylamino)methyl]tetrahydrofuran-2-yl]pyrrolo[2,3-d]pyrimidin-5-yl]ethynyl]-7-fluoro-4-methyl-2,3-dihydro-1,4-benzoxazine], in series [11], the “RTV comparison with Comparative Example” value is “significantly lower than that of the Comparative Example” and the “RTV comparison with control on day 15” value is “significantly lower than that of the control”.
In series [19], `Nc1ncnc2c1c(C#Cc1c(F)cc(N3CC[C@H](F)C3)cc1F)cn2[C@@H]1C[C@H](CNS(N)(=O)=O)[C@@H](O)[C@H]1O` [Example 116, 4-Amino-5-[2-[2,6-difluoro-4-[(3S)-3-fluoropyrrolidin-1-yl]phenyl]ethynyl]-7-[(1R,2S,3R,4R)-2,3-dihydroxy-4-[(sulfamoylamino)methyl]cyclopentyl]pyrrolo[2,3-d]pyrimidine] showed an IC50 of 0.0051 µM.
As for `Nc1ncnc2c1c(C#Cc1c(F)cc(N3CC[C@@H](O)C3)cc1F)cn2[C@@H]1C[C@H](CNS(N)(=O)=O)[C@@H](O)[C@H]1O` [Example 120, 4-Amino-5-[2-[2,6-difluoro-4-[(3R)-3-hydroxypyrrolidin-1-yl]phenyl]ethynyl]-7-[(1R,2S,3R,4R)-2,3-dihydroxy-4-[(sulfamoylamino)methyl]cyclopentyl]pyrrolo[2,3-d]pyrimidine], the “change of the body weight” value in series [9] is recorded as “almost the same as that of the control”. The “RTV comparison with control on day 15” value in series [11] is “significantly lower than that of the control”.
With `Nc1ncnc2c1c(C#Cc1c(F)cc(N3CC[C@H](O)C3)cc1F)cn2[C@@H]1C[C@H](CNS(N)(=O)=O)[C@@H](O)[C@H]1O` [Example 121, 4-Amino-5-[2-[2,6-difluoro-4-[(3S)-3-hydroxypyrrolidin-1-yl]phenyl]ethynyl]-7-[(1R,2S,3R,4R)-2,3-dihydroxy-4-[(sulfamoylamino)methyl]cyclopentyl]pyrrolo[2,3-d]pyrimidine], 0.0062 µM corresponded to half-maximal inhibition in series [19] (IC50).
As to `CN1CCOc2c1ccc(F)c2C#Cc1cn([C@@H]2C[C@H](CNS(N)(=O)=O)[C@@H](O)[C@H]2O)c2ncnc(N)c12` [Example 122, 8-[2-[4-amino-7-[(1R,2S,3R,4R)-2,3-dihydroxy-4-[(sulfamoylamino)methyl]cyclopentyl]pyrrolo[2,3-d]pyrimidin-5-yl]ethynyl]-7-fluoro-4-methyl-2,3-dihydro-1,4-benzoxazine], in series [11], the “RTV comparison with Comparative Example” value is “significantly lower than that of the Comparative Example” and the “RTV comparison with control on day 15” value is “significantly lower than that of the control”.
As for `Nc1ncnc2c1c(C#Cc1c(F)cccc1F)cn2[C@@H]1C=C(CNS(N)(=O)=O)[C@@H](O)[C@H]1O` [Example 128, 4-Amino-5-[2-(2,6-difluorophenyl)ethynyl]-7-[(1R,4R,5S)-4,5-dihydroxy-3-[(sulfamoylamino)methyl]cyclopent-2-en-1-yl]pyrrolo[2,3-d]pyrimidine], in series [19], the IC50 was 0.0033 µM.
Regarding `Nc1ncnc2c1c(C#Cc1cccc3ccccc13)cn2[C@@H]1O[C@H](COS(N)(=O)=O)[C@@H](O)[C@H]1O` [Example 133, [(2R,3S,4R,5R)-5-[4-Amino-5-[2-(1-naphthyl)ethynyl]pyrrolo[2,3-d]pyrimidin-7-yl]-3,4-dihydroxy-tetrahydrofuran-2-yl]methyl sulfamate], in series [9], the “change of the body weight” value is “almost the same as that of the control”. In addition, the “RTV comparison with control on day 15” value in [11] was “significantly lower than that of the control”.
